This note sets out measurements from US5700774A, “Compositions comprising bone morphogenic proteins and truncated parathyroid hormone related peptide, and methods of inducing cartilage by administration of same” (Genetics Institute, Inc., priority 1996, dated 1997).

In this assay the test system is cell lines derived from E13 mouse limb buds. Description: Northern analysis of tissue specific mRNA expression in limb bud cell lines. In kind it is cell-based. Particulars: PTHrP1-34 alone, 100 ng/ml, 1, 2, 4 or 8 days. The procedure: PTHrP was tested for its effect on cell lines derived from E13 mouse limb buds either alone or in combination with BMP-2. Cells were grown to confluence in DME medium supplemented with 10% fetal calf serum (FCS). At confluence, cells were transferred to DME medium supplemented with 1% FCS and cultured for 1, 2, 4 or 8 days in the presence of either BMP-2 (100 ng/ml), PTHrP1-34 (100 ng/ml)(Peninsular Laboratories Inc). or a combination of BMP-2 and PTHrP1-34. Northern analysis was used to determine expression of tissue specific mRNAs for cartilage (proteoglycan core protein, collagen type II and decorin), bone (osteocalcin, alkaline phosphatase and collagen type I) and hypertrophic cartilage (collagen type X).

As to “PTHrP1-34: truncated peptide which comprises the first 34 amino acids of PTHrP (Peninsular Laboratories Inc)”, the “expression of any of the tissue specific mRNAs (cartilage, bone, hypertrophic cartilage markers)” value is “did not induce expression”.
